Results from publication PMC10459710 (Viruses, 2023).
One block for each compound: values may come before it.

How the values were obtained:
Vero cells = test: CellTiter-Glo cell viability assay in Vero cells; format: cell-based, African green monkey; conditions: 72 h exposure
HSV-1 [1] = test: Cytopathic effect; format: cell-based, Herpes simplex virus type 1 (strain H129); conditions: for IC50: 48 h; for Selective Index: SI = CC50/IC50, CPE reduction assay, Vero cells
[2] = CellTiter-Glo cell viability assay in Vero cells; format: cell-based, African green monkey; conditions: African green monkey, 72 h exposure
HSV-1 [3] = test: Virus entry assay (IFA, anti-ICP5); format: cell-based, Herpes simplex virus type 1 (strain H129)
HSV-1 DNA = test: Intracellular and virion-associated HSV-1 DNA levels by real-time PCR; format: cell-based, Herpes simplex virus type 1 (strain H129); conditions: Vero cells, MOI 0.01, 24 h, qPCR
[4] = CellTiter-Glo cell viability assay in Hela cells; format: cell-based; conditions: human, 72 h exposure
cyclin B-dependent CDK1 = conditions: read-out: in vitro IC50; cited from earlier work
cycle E-dependent CDK2 = conditions: read-out: in vitro IC50; cited from earlier work
HSV-1 IE, E, and L genes = test: HSV-1 IE, E and L gene expression (qRT-PCR and Western blot) in Vero cells; format: cell-based, Herpes simplex virus type 1 (strain H129)
HSV-2 = test: Anti-HSV-2 activity in Vero cells by plaque assay; format: cell-based, Herpes simplex virus type 2 (strain G); conditions: HSV-2, Vero cells
HSV-1 [5] = test: Plaque reduction assay (viral titer in supernatant), HSV-1-infected Vero cells; format: cell-based, Herpes simplex virus type 1 (strain H129); conditions: for Viral titer: HSV-1 MOI 0.01, 48 h, supernatant
HSV-1 [6] = test: Plaque reduction assay, HSV-1-infected Hela cells; format: cell-based, Herpes simplex virus type 1 (strain H129); conditions: Human alphaherpesvirus 1, HSV-1 MOI 0.01, Hela cells, 48 h
HSV-1 [7] = test: Virus attachment assay (IFA, anti-gD); format: cell-based, Herpes simplex virus type 1 (strain H129); conditions: BMS at 0.5, 5, and 50 µM, 4 °C, MOI 10
HSV-1 [8] = test: Plaque reduction assay, HSV-1-infected HepG2 cells; format: cell-based, Herpes simplex virus type 1 (strain H129); conditions: Human alphaherpesvirus 1, HSV-1 MOI 0.01, HepG2 cells, 48 h
[9] = CellTiter-Glo cell viability assay in HepG2 cells; format: cell-based; conditions: human, 72 h exposure
HSV-1 [10] = test: BMS treatment during different time periods of the HSV-1 life cycle; format: cell-based, Herpes simplex virus type 1 (strain H129)
HSV-1 [11] = test: Time-of-addition assay, HSV-1 in Vero cells, plaque assay readout; format: cell-based, Herpes simplex virus type 1 (strain H129)
HCMV = system: HCMV; parameters: method as in earlier work; conditions: cited from earlier work
[12] = Human alphaherpesvirus 1, HSV-1 MOI 0.01, Vero cells, CPE reduction, ND = Not detectable, read-out: IC50

SMILES: COc1ccc(CNc2nc(N(CCO)CCO)nc3c2ncn3C(C)C)cc1 [CVT-313]
CC50 (Vero cells): 6.38 µM

SMILES: O=C1NC(=NCc2cccs2)S/C1=C\c1ccc2ncccc2c1 [Ro-3306]
CC50 (Vero cells): 14.1 µM

IC50 (HSV-1 [1]; [12]): 25 µM
SMILES: Cc1n[nH]c2ncc(C(=O)N3CCC[C@H]3c3ccc(Cl)cc3)cc12 [MSC2530818]
Selective Index (HSV-1 [1]): 5.54
CC50 at 72 h [2]: 138 µM

SMILES: CN1CC[C@H](c2c(O)cc(O)c3c(=O)cc(-c4ccccc4Cl)oc23)[C@H](O)C1 [Flavopiridol]
CC50 at 72 h [2]: 0.16 µM

SMILES: CN(C)C/C=C/C(=O)Nc1cccc(C(=O)Nc2cccc(Nc3ncc(Cl)c(-c4c[nH]c5ccccc45)n3)c2)c1 [THZ2]
CC50 (Vero cells): 0.42 µM

SMILES: CCCCOc1c(C(=O)c2c(F)cc(C)cc2F)c[nH]c2nncc1-2 [BMS-265246]
entry of HSV-1 to Vero cells (HSV-1 [3]; BMS at 0.5, 5, and 50 µM, 37 °C 30 min, MOI 10): did not affect the entry
expression of ICP5 (IFA over 1-4 hpi) (HSV-1 [3]; Vero cells, MOI 10, 1, 2, 3, and 4 h at 37 °C): the expression of ICP5 was prevented
intracellular HSV-1 DNA levels (HSV-1 DNA; Hirt method): decreases concentration-dependently
virion-associated HSV-1 viral DNA levels (HSV-1 DNA; supernatant): reduced concentration-dependently
CC50 at 72 h [4]: 189 µM
IC50 (cyclin B-dependent CDK1): 0.006 µM
IC50 (cycle E-dependent CDK2): 0.009 µM
transcripts of the IE gene ICP27, the E gene ICP8, and the L gene gD (HSV-1 IE, E, and L genes; MOI 0.01, qRT-PCR at 4, 8, and 20 hpi): concentration-dependently suppressed
protein levels of ICP4, ICP8, ICP5, and gB (HSV-1 IE, E, and L genes; Western blot at 24 hpi): reduced by BMS concentration-dependently
Selective Index (HSV-2; CC50/IC50): > 472
IC50 (HSV-2; Human alphaherpesvirus 2, plaque assay): 1.06 µM
IC50 (HSV-1 [1]; Human alphaherpesvirus 1, Vero): 0.08 µM
Selective Index (HSV-1 [1]): >6250
Viral titer (HSV-1 [5]; BMS 0.02 μM): 5.90 log10PFU/mL
Viral titer (HSV-1 [5]; BMS 0.07 μM): 5.87 log10PFU/mL
Viral titer (HSV-1 [5]; BMS 0.21 μM): 5.85 log10PFU/mL
Viral titer (HSV-1 [5]; BMS 0.62 μM): 5.76 log10PFU/mL
Viral titer (HSV-1 [5]; BMS 1.85 μM): 5.01 log10PFU/mL
Viral titer (HSV-1 [5]; BMS 5.56 μM): 3.40 log10PFU/mL
Viral titer (HSV-1 [5]; BMS 16.67 μM): 2.60 log10PFU/mL
Viral titer (HSV-1 [5]; BMS 50 μM): 2.24 log10PFU/mL
IC50 (HSV-1 [5]; Human alphaherpesvirus 1, HSV-1 MOI 0.01, Vero cells, 48 h, plaque assay): 0.95 µM
IC50 (HSV-1 [6]): 0.18 µM
binding of HSV-1 to Vero cells (HSV-1 [7]): did not affect the binding
IC50 (HSV-1 [8]): 1.03 µM
CC50 at 72 h [9]: > 500 µM
CC50 at 72 h [2]: > 500 µM
virus production (plaque assay) (HSV-1 [10]; 50 μM BMS at 5–10 and 10–15 hpi, MOI 0.1, 30 h of infection): significantly suppress virus production
transcription of ICP27, ICP8, and gD (HSV-1 [10]; 50 μM BMS during 0–5, 5–10, 10–15, or 15–20 hpi, MOI 1, Vero cells): dramatically suppresses
production of progeny virions (HSV-1 [11]; pretreatment of the cells): significantly reduced
viral titer reduction (HSV-1 [11]; treatment started at 4 or 10 hpi until harvesting): less than one logarithm

SMILES: CC[C@H](CO)Nc1nc(NCc2ccccc2)c2ncn(C(C)C)c2n1 [Seliciclib]
CC50 at 72 h [2]: 18.5 µM

SMILES: C=CS(=O)(=O)c1ccc(Nc2nc(OCC3CCCCC3)c3[nH]cnc3n2)cc1 [NU6300]
CC50 (Vero cells): 13.8 µM

IC50 (HSV-1 [1]; [12]): 0.42 µM
SMILES: Nc1nc2c(ncn2COCCO)c(=O)[nH]1 [Acyclovir, acyclovir]
Selective Index (HSV-1 [1]): >238.10
CC50 at 72 h [2]: > 100 µM

SMILES: Nc1cc(Nc2ccc(S(N)(=O)=O)cc2)ncn1 [PNU112455A]
CC50 (Vero cells): 156 µM

SMILES: CCc1cnn2c(NCc3ccc[n+]([O-])c3)cc(N3CCCC[C@H]3CCO)nc12 [Dinaciclib]
CC50 at 72 h [2]: 1.13 µM

SMILES: CC(C)[C@H](CO)Nc1nc(Nc2ccc(C(=O)O)c(Cl)c2)c2ncn(C(C)C)c2n1 [Purvalanol B]
CC50 at 72 h [2]: 73.5 µM

SMILES: COC(=O)[C@]1(Cc2ccc(O)c(CC=C(C)C)c2)OC(=O)C(O)=C1c1ccc(O)cc1 [Butyrolactone I]
CC50 at 72 h [2]: 151 µM

SMILES: CCn1cnc2c(Nc3cccc(Cl)c3)nc(N[C@@H]3CCCC[C@@H]3N)nc21 [CGP74514A]
reduction of HCMV replication compared with untreated controls (HCMV): ~ 300 fold

SMILES: CC(=O)Nc1cc(Oc2ccc3c(C(=O)Nc4ccc(CN5CCN(C)CC5)c(C(F)(F)F)c4)cccc3c2)ncn1 [BGG463]
CC50 (Vero cells): 18.5 µM

SMILES: COc1ccccc1-c1cc(Nc2cccc(CS(N)(=O)=O)c2)ncn1 [LDC000067]
CC50 (Vero cells): 14.4 µM

SMILES: CCN1CCN(Cc2ccc(Nc3ncc(F)c(-c4cc(F)c5nc(C)n(C(C)C)c5c4)n3)nc2)CC1 [Abemaciclib]
CC50 at 72 h [2]: 29.1 µM
